According to US11739122B2, “Glycopeptide antibiotic compounds, methods for producing the same, and uses thereof” (Academia Sinica, priority 2019, dated 2023):
Converted amounts (≈) assume the structure as drawn.

How the values were obtained:
[1] = test system: E. faecalis ATCC 29302; experiment: MIC, broth microdilution; type: cell-based; conditions: Enterococcus faecalis, ATCC29302
Summary of the method: (§1)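 Step one, pick colonies from 18-24 h agar plates into broth until 0.5 McFarland turbidity; step two, dilute to approximately 1×10^8 CFU mL^−1; step three, incubate at 37° C for 18-24 h and score visible growth.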

[2] = target: T1, Orf2*T (Actinoplanes teichomyceticus, UniProt A0A561VD00, F193Y/S98A/V121A); experiment: ITC binding affinity; conditions: ITC versus Orf2*T
T1 sequence (A0A561VD00 with tags, fused parts or gaps S98A/V121A/F193Y): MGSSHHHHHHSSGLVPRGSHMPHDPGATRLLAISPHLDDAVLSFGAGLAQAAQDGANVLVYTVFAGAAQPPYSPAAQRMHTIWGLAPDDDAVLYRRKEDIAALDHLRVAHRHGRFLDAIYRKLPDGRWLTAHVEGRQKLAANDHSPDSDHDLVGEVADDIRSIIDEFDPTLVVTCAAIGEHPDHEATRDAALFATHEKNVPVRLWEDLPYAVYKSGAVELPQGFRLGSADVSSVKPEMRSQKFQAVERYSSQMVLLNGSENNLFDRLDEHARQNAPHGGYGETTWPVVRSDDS
Method: (§2) Isothermal Titration Calormetry (ITC) Analysis
(§3) A stock solution (50 mM) was prepared by dissolving r6,GlcNAc pseudoaglycone (9) in 50% DMSO. The 1 mM protein solutions of Orf2*, Orf2*T and Dbv27 were prepared in a 50 mM HEPES buffer solution at pH 8.0. The solution (50 mM HEPES, pH8.0 and 10% DMSO) that contained compound 9 (1 mM) or S-adenosylmethionine (SAM) (1 mM) in a 40 μL injection syringe was titrated into the Orf2*, Orf2*T or Dbv27 (0.1 mM) protein solution, which was placed in the sample cell of a 200 μL volume. Each titration consisted of 16 injections of a 2 μL4 s^−1 duration in an interval of 150 seconds. Data analysis was performed by software.

[3] = target: T2, Orf2* (Actinoplanes teichomyceticus, UniProt A0A561VD00); experiment: ITC binding affinity; conditions: ITC versus Orf2*
Method: as §2, §3

[4] = test system: S. aureus ATCC 29213; experiment: MIC, broth microdilution; type: cell-based, Staphylococcus aureus; conditions: Staphylococcus aureus, ATCC29213
Summary of the method: as §1

[5] = test system: MRSA ATCC 43300; experiment: MIC, broth microdilution; type: cell-based, Staphylococcus aureus; conditions: Staphylococcus aureus
Summary of the method: as §1

[6] = test system: MRSA ATCC BAA-44; experiment: MIC, broth microdilution; type: cell-based, Staphylococcus aureus; conditions: Staphylococcus aureus
Summary of the method: as §1

[7] = test system: MRSA ATCC 700787 VRSA; experiment: MIC, broth microdilution; type: cell-based, Staphylococcus aureus; conditions: Staphylococcus aureus
Summary of the method: as §1

[8] = test system: MRSA ATCC 700698 hVISA; experiment: MIC, broth microdilution; type: cell-based, Staphylococcus aureus; conditions: Staphylococcus aureus
Summary of the method: as §1

[9] = test system: MRSA ATCC 700789 VRSA; experiment: MIC, broth microdilution; type: cell-based, Staphylococcus aureus; conditions: Staphylococcus aureus
Summary of the method: as §1

[10] = test system: MRSA ATCC BAA-39; experiment: MIC, broth microdilution; type: cell-based, Staphylococcus aureus; conditions: Staphylococcus aureus
Summary of the method: as §1

[11] = test system: MRSA ATCC BAA-38; experiment: MIC, broth microdilution; type: cell-based, Staphylococcus aureus; conditions: Staphylococcus aureus
Summary of the method: as §1

[12] = test system: VRE ATCC 700802 (vanB); experiment: MIC, broth microdilution; type: cell-based, enterococci; conditions: Enterococcus
Summary of the method: as §1

[13] = test system: VRE ATCC 700221 (vanA); experiment: MIC, broth microdilution; type: cell-based, enterococci; conditions: Enterococcus
Summary of the method: as §1

[14] = test system: VRE ATCC 700425 (vanC); experiment: MIC, broth microdilution; type: cell-based, enterococci; conditions: Enterococcus
Summary of the method: as §1

[15] = target: T2, Orf2*; experiment: Deacetylation catalytic specificity; type: biochemical; conditions: substrate of Orf2* (WT)

T2 sequence (A0A561VD00 entry or part of it): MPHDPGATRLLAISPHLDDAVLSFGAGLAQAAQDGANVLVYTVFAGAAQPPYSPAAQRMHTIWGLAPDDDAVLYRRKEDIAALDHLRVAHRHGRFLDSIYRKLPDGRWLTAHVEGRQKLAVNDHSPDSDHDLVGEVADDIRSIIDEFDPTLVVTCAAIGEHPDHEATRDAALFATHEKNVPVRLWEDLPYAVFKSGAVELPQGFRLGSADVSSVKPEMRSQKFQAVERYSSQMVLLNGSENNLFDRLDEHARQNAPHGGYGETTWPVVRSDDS

| Structure (SMILES) | MIC [1] [µg/mL] | Kd [2] [µM] | Kd [3] [µM] | MIC [4] [µg/mL] | MIC [5] [µg/mL] | MIC [6] [µg/mL] | MIC [7] [µg/mL] | MIC [8] [µg/mL] | MIC [9] [µg/mL] | MIC [10] [µg/mL] | MIC [11] [µg/mL] | MIC [12] [µg/mL] | MIC [13] [µg/mL] | MIC [14] [µg/mL] | kcatKm^−1 [15] [M⁻¹ s⁻¹] |
| --- | --- | --- | --- | --- | --- | --- | --- | --- | --- | --- | --- | --- | --- | --- | --- |
| CC(=O)N[C@H]1[C@H](O[C@@H]2c3ccc(c(Cl)c3)Oc3cc4cc(c3O)Oc3ccc(cc3Cl)C[C@H]3NC(=O)[C@H](N)c5ccc(O)c(c5)Oc5cc(O)cc(c5)[C@H](NC3=O)C(=O)N[C@H]4C(=O)N[C@H]3C(=O)N[C@@H]2C(=O)N[C@H](C(=O)O)c2cc(O)cc(O)c2-c2cc3ccc2O)O[C@H](CO)[C@@H](O)[C@@H]1O [Compound 9, r6,GlcNAc Tei-pseudoaglycone] | 2 (≈ 1.43 µM) | 125 ± 14 | 1420 ± 1100 | 0.25 (≈ 0.178 µM) | 0.25 (≈ 0.178 µM) | 0.125 (≈ 0.0892 µM) | 0.5 (≈ 0.357 µM) | 1 (≈ 0.713 µM) | 2 (≈ 1.43 µM) | 0.125 (≈ 0.0892 µM) | 0.25 (≈ 0.178 µM) | 4 (≈ 2.85 µM) | > 128 | 4 (≈ 2.85 µM) |  |
| CC(=O)N[C@H]1[C@H](Oc2c3cc4cc2Oc2ccc(cc2Cl)[C@@H](O)[C@@H]2NC(=O)[C@H](NC(=O)[C@@H]4NC(=O)[C@H]4NC(=O)[C@@H](Cc5ccc(c(Cl)c5)O3)NC(=O)[C@H](N)c3ccc(O)c(c3)Oc3cc(O)cc4c3)c3ccc(O)c(c3)-c3c(O)cc(O)cc3[C@@H](C(=O)O)NC2=O)O[C@H](CO)[C@@H](O)[C@@H]1O [Compound 5, r4,GlcNAc Tei-pseudoaglycone] |  |  |  |  |  |  |  |  |  |  |  |  |  |  | 377300 |
